Data reported in ChEMBL document CHEMBL5634193, “Discovery of CVN293, a Brain Permeable KCNK13 (THIK-1) Inhibitor Suitable for Clinical Assessment” (ACS Med Chem Lett, 2024).
pIC50: −log10 of the molar value. In brackets after ≈: the same amount, converted by molar mass. Activity calls are given as the source filed them. The rule behind the calls is not given here.

Experiments:
[1] = target: Sodium channel protein type 5 subunit alpha (Homo sapiens, UniProt Q14524); assay: Inhibition of NaV1.5 (unknown origin); format: toxicity
Chain of Sodium channel protein type 5 subunit alpha (Q14524 whole entry): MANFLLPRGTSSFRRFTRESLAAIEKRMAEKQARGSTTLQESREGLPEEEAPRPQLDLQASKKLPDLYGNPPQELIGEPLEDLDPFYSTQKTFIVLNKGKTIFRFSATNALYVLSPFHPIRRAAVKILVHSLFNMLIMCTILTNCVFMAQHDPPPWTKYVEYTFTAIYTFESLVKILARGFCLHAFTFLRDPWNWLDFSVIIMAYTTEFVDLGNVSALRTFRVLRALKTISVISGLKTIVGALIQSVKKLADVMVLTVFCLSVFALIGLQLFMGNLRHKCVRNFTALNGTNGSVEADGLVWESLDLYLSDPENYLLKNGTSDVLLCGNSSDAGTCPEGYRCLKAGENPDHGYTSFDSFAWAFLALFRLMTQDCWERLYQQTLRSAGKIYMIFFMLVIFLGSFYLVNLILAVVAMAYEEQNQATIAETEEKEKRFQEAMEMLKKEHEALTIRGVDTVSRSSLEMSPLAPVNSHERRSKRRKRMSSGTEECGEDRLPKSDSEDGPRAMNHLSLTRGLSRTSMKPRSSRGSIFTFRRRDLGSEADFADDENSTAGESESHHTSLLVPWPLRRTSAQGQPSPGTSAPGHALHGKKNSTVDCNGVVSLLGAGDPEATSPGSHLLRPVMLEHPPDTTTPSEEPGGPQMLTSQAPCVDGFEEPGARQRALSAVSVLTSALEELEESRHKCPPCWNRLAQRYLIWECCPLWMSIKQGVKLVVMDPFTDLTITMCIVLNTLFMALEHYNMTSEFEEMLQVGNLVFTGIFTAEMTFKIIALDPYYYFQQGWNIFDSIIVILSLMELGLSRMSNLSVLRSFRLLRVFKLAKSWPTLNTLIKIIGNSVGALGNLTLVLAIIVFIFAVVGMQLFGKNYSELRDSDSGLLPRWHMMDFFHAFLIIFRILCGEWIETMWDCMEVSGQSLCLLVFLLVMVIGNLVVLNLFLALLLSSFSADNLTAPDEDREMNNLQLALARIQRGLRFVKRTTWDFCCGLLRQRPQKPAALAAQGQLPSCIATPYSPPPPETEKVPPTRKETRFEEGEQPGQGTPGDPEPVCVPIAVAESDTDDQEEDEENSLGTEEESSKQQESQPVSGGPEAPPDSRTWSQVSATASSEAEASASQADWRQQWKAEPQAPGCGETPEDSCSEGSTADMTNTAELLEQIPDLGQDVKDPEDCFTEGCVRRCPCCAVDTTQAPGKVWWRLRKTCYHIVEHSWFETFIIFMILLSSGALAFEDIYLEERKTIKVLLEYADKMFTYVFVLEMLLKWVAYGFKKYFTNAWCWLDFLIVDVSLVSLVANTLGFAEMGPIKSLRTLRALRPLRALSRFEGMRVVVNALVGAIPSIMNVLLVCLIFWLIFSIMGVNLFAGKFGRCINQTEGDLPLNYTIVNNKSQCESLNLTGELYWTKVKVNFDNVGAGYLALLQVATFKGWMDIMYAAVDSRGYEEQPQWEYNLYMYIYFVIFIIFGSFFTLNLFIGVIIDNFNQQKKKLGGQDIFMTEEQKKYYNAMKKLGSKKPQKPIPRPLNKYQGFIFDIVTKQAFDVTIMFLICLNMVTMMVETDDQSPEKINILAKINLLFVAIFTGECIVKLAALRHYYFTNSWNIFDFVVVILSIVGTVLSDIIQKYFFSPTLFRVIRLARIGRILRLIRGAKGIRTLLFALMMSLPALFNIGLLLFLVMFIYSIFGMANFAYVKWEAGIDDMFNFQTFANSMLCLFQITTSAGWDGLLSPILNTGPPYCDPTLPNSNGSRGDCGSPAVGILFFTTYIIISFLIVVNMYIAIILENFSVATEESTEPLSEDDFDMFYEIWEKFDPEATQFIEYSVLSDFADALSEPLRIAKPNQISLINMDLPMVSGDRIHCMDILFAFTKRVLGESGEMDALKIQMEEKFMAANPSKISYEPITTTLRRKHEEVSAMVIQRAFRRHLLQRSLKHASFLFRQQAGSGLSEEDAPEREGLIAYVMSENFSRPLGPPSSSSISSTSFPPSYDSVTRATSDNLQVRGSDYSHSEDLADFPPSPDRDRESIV

[2] = Clearance in Beagle dog at 1 mg/kg, iv; format: ADME, organism-based, Canis lupus familiaris; settings: in vivo
[3] = AUC (0 to infinity) in Cynomolgus monkey at 3 mg/kg, po; format: ADME, organism-based, Macaca fascicularis; settings: in vivo
[4] = target: NACHT, LRR and PYD domains-containing protein 3 (Mus musculus) (UniProt Q8R4B8); assay: Inhibition of NLRP3 inflammasome-mediated IL-1beta release in LPS/ATP-induced C57Bl6 mouse hippocampus at 1 uM pretreated for 1 hr followed by ATP addition measured after 3 hrs by ELISA; format: tissue-based; settings: time 4.0 hrs
Chain of NACHT, LRR and PYD domains-containing protein 3 (Mus musculus) (Q8R4B8 whole entry, the tested form may be a part): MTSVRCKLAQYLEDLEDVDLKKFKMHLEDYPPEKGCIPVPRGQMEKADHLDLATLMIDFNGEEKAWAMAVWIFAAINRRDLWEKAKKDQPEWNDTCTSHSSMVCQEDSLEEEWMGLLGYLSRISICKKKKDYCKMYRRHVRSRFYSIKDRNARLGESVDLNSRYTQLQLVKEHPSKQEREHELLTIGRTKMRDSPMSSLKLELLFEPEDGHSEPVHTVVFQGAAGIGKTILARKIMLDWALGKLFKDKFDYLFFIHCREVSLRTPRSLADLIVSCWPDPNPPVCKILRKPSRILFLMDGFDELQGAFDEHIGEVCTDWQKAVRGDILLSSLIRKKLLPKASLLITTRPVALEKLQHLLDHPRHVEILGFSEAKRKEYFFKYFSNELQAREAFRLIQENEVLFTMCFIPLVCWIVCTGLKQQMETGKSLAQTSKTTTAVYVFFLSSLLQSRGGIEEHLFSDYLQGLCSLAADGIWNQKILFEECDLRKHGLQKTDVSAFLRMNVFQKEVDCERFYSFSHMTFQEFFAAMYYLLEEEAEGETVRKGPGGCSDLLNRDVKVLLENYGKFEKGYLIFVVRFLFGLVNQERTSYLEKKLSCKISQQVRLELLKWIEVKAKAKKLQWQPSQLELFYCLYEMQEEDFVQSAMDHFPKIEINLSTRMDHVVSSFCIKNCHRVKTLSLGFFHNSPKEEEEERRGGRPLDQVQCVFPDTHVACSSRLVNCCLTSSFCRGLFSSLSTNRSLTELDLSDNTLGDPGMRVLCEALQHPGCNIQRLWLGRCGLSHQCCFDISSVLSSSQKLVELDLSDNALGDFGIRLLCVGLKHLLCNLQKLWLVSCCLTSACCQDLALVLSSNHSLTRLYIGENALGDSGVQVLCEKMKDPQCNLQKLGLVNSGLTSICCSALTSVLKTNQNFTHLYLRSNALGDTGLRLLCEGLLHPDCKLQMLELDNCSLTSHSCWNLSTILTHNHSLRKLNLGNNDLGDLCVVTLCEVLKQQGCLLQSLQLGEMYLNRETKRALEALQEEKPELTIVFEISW

[5] = AUC (0 to infinity) in Cynomolgus monkey at 1 mg/kg, iv; format: ADME, organism-based, Macaca fascicularis; settings: in vivo
[6] = Half life in Beagle dog at 1 mg/kg, iv; format: ADME, organism-based, Canis lupus familiaris; settings: in vivo
[7] = C0 in Cynomolgus monkey at 1 mg/kg, iv; format: ADME, organism-based, Macaca fascicularis; settings: in vivo
[8] = Half life in Sprague-Dawley rat at 0.5 mg/kg, iv; format: ADME, organism-based; settings: in vivo
[9] = target: NACHT, LRR and PYD domains-containing protein 3 (Mus musculus) (UniProt Q8R4B8); assay: Inhibition of NLRP3 inflammasome-mediated IL-1beta release in LPS-primed neonatal C57BL/6 P1-4 mouse microglia pretreated for 30 mins followed by media removal and compound re-addition with K+-free buffer measured after 2 hrs by ELISA relative to control; format: cell-based; settings: time 150.0 min
[10] = AUC (0 to infinity) in Beagle dog at 10 mg/kg, po; format: ADME, organism-based, Canis lupus familiaris; settings: in vivo
[11] = Volume of distribution at steady state in Sprague-Dawley rat at 0.5 mg/kg, iv; format: ADME, organism-based; settings: in vivo, read-out: Vdss
[12] = Ratio of unbound drug concentration in brain to plasma C57BL/6 mouse at 10 mg/kg, po measured after 4 hrs by LC-MS/MS analysis; format: ADME, organism-based; settings: brain and plasma, read-out: K(p,uu,brain)
[13] = Unbound drug concentration in C57BL/6 mouse brain at 10 mg/kg, po measured after 4 hrs by LC-MS/MS analysis; format: ADME, organism-based; settings: in vivo
[14] = tested on: HEK293; assay: Inhibition of recombinant human KCNK6 transfected in HEK293 cells assessed as reduction in thallium influx at 30 uM incubated for 15 mins in dark by FLIPR assay relative to control; format: cell-based
[15] = Tmax in Sprague-Dawley rat at 3 mg/kg, po; format: ADME, organism-based; settings: in vivo
[16] = Oral bioavailability in Beagle dog at 10 mg/kg; format: ADME, organism-based, Canis lupus familiaris; settings: in vivo
[17] = C0 in Sprague-Dawley rat at 0.5 mg/kg, iv; format: ADME, organism-based; settings: in vivo
[18] = AUC (0 to infinity) in Sprague-Dawley rat at 3 mg/kg, po; format: ADME, organism-based; settings: in vivo
[19] = Clearance in Cynomolgus monkey at 1 mg/kg, iv; format: ADME, organism-based, Macaca fascicularis; settings: in vivo
[20] = Oral bioavailability in Sprague-Dawley rat at 3 mg/kg; format: ADME, organism-based; settings: in vivo
[21] = target: T1, Potassium channel subfamily K member 13 (Mus musculus, UniProt Q8R1P5); assay: Inhibition of mouse KCNK13 transfected in HEK293 cells assessed as reduction in thallium influx incubated for 15 mins in dark by FLIPR assay; format: cell-based
T1 sequence (Q8R1P5 whole entry): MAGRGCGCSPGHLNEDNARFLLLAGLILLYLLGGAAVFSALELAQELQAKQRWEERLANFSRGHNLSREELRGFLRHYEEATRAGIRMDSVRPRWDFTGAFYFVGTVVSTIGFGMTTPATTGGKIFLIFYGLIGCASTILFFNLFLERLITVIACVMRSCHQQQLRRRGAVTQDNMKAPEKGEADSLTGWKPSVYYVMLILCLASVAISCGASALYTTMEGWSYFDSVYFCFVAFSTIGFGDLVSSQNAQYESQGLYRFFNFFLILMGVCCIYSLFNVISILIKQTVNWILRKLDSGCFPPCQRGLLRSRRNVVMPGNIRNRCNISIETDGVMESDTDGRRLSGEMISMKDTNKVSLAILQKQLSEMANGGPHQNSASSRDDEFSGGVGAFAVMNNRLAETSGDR

[22] = Half life in Sprague-Dawley rat at 3 mg/kg, po; format: ADME, organism-based; settings: in vivo
[23] = AUC (0 to infinity) in Sprague-Dawley rat at 0.5 mg/kg, iv; format: ADME, organism-based; settings: in vivo
[24] = species: Mus musculus; assay: Effect on IL-1beta release in LPS-induced C57Bl6 mouse hippocampus upto 5 uM treated for 1 hr by ELISA; format: functional, tissue-based
[25] = target: T1, Potassium channel subfamily K member 13; assay: Inhibition of mouse KCNK13 transfected in HEK293 cells; format: cell-based
[26] = Metabolic stability in mouse liver microsomes assessed as intrinsic clearance; format: ADME, Microsome; settings: read-out: CLH
[27] = Metabolic stability in human liver microsomes assessed as intrinsic clearance; format: ADME, Microsome; settings: read-out: CLH
[28] = Protein binding in mouse plasma assessed as unbound fraction by equilibrium dialysis; format: ADME, cell-free
[29] = Ratio of drug concentration in brain to plasma C57BL/6 mouse at 10 mg/kg, po measured after 4 hrs by LC-MS/MS analysis; format: ADME, organism-based; settings: brain and plasma, read-out: BPR
[30] = Cmax in Cynomolgus monkey at 3 mg/kg, po; format: ADME, organism-based, Macaca fascicularis; settings: in vivo
[31] = Metabolic stability in rat liver microsomes assessed as intrinsic clearance; format: ADME, Microsome; settings: read-out: CLH
[32] = Clearance in Sprague-Dawley rat at 0.5 mg/kg, iv; format: ADME, organism-based; settings: in vivo
[33] = AUC (0 to infinity) in Beagle dog at 1 mg/kg, iv; format: ADME, organism-based, Canis lupus familiaris; settings: in vivo
[34] = Unbound drug concentration in C57BL/6 mouse plasma at 10 mg/kg, po measured after 4 hrs by LC-MS/MS analysis; format: ADME, organism-based; settings: in vivo
[35] = target: Voltage-gated inwardly rectifying potassium channel KCNH2 (Homo sapiens, UniProt Q12809); assay: Inhibition of hERG; format: toxicity
Chain of Voltage-gated inwardly rectifying potassium channel KCNH2 (Q12809 whole entry): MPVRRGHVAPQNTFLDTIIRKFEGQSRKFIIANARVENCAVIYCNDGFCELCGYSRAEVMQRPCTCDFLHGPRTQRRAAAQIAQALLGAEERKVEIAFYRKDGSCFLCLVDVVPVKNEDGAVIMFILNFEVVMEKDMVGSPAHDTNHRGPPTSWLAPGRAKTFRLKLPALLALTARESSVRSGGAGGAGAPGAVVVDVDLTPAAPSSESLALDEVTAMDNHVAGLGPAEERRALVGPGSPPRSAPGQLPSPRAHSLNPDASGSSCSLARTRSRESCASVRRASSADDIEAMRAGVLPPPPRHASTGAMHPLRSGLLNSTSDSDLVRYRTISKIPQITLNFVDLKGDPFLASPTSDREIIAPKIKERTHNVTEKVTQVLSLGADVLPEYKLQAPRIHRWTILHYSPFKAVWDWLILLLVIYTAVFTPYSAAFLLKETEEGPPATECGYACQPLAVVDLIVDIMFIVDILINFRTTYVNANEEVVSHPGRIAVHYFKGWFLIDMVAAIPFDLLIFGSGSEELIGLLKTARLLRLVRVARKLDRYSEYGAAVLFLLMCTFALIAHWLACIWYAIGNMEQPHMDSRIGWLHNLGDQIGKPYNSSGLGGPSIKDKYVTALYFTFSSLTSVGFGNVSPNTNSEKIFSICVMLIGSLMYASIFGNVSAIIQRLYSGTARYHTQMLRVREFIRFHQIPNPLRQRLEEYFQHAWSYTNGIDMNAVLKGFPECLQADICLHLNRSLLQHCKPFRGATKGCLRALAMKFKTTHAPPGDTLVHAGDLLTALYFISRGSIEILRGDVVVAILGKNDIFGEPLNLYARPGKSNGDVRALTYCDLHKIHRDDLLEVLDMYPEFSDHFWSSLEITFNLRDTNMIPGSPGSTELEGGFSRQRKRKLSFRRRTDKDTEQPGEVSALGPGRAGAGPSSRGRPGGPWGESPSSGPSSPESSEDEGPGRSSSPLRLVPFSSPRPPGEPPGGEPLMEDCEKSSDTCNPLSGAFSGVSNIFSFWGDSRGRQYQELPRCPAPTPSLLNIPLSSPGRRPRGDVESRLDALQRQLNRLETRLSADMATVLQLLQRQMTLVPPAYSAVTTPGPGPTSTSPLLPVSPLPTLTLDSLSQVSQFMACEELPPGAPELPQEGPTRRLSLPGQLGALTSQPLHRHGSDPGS

[36] = tested on: KCNK2 (Homo sapiens); assay: Inhibition of recombinant human KCNK2 transfected in HEK293 cells assessed as reduction in thallium influx at 30 uM incubated for 15 mins in dark by FLIPR assay relative to control
[37] = target: Voltage-dependent L-type calcium channel subunit alpha-1C (Homo sapiens, UniProt Q13936); assay: Inhibition of CaV1.2 (unknown origin); format: toxicity
[38] = Oral bioavailability in Cynomolgus monkey at 3 mg/kg; format: ADME, organism-based, Macaca fascicularis; settings: in vivo
[39] = Volume of distribution at steady state in Beagle dog at 1 mg/kg, iv; format: ADME, organism-based, Canis lupus familiaris; settings: in vivo, read-out: Vdss
[40] = Cmax in Sprague-Dawley rat at 3 mg/kg, po; format: ADME, organism-based; settings: in vivo
[41] = Volume of distribution at steady state in Cynomolgus monkey at 1 mg/kg, iv; format: ADME, organism-based, Macaca fascicularis; settings: in vivo, read-out: Vdss
[42] = target: T2, Potassium channel subfamily K member 13 (Mus musculus) (UniProt Q8R1P5); assay: Inhibition of mouse KCNK13 transfected in HEK293 cells assessed as reduction in thallium influx incubated for 15 mins in dark by FLIPR assay relative to control; format: cell-based
T2 sequence (whole entry): T1 sequence (Q8R1P5 whole entry)

[43] = Kinetic aqueous solubility of compound at pH 7.4; format: physicochemical; settings: buffer, read-out: Kinetic_solubility
[44] = Half life in Cynomolgus monkey at 3 mg/kg, po; format: ADME, organism-based, Macaca fascicularis; settings: in vivo
[45] = C0 in Beagle dog at 1 mg/kg, iv; format: ADME, organism-based, Canis lupus familiaris; settings: in vivo

## Nc1nonc1-c1nc2cccc(F)c2n1Cc1cccnn1
[1]
  inhibition (INH): Not Active
[2]
  clearance: 38 mL/min/kg
[3]
  AUC(0-inf): 546 ng·h/mL
[4]
  inhibition: Active
[5]
  AUC(0-inf): 782 ng·h/mL
[6]
  half-life: 0.5 h
[7]
  C0: 896 ng/mL
[8]
  half-life: 1 h
[9]
  Imax: 59.1%
[10]
  AUC: 630 ng·h/mL
[11]
  Vd: 1.85 L/kg
[12]
  Kp uu at 4 h: 0.66
[13]
  Cp(f): 248 nM
[14]
  Imax: 10.7%
[15]
  Tmax: 1 h
[16]
  F: 41%
[17]
  C0: 304 ng/mL
[18]
  AUC(0-inf): 1240 ng·h/mL
[19]
  clearance: 22 mL/min/kg
[20]
  bioavailability: 87%
[21]
  pIC50: 7.55
[22]
  half-life: 2 h
[23]
  AUC(0-inf): 222 ng·h/mL
[24]
  Activity: inactive
[25]
  pIC50: 7.55
[26]
  microsomal CLint: < 9.6 µL/min/mg
[27]
  microsomal CLint: < 9.6 µL/min/mg
[28]
  fraction unbound: 0.173
[29]
  Kp at 4 h: 0.84
[30]
  Cmax: 165 ng/mL
[31]
  microsomal CLint: 9.9 µL/min/mg
[32]
  clearance: 35 mL/min/kg
[33]
  AUC: 438 ng·h/mL
[34]
  Cp(f): 372 nM
[35]
  inhibition (INH): Not Active
[36]
  Imax: 17.4%
[37]
  inhibition (INH): Not Active
[38]
  bioavailability: 24%
[39]
  Vd: 1.42 L/kg
[40]
  Cmax: 468 ng/mL
[41]
  Vd: 1.45 L/kg
[42]
  Imax: 97%
[43]
  solubility kinetic: 94 µM (≈ 29.3 µg/mL)
[44]
  half-life: 1.9 h
[45]
  C0: 626 ng/mL
